In PubChem BioAssay (NCI):
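Assay format: 96-well plates, 48-hour exposure. TGI: total growth inhibition.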

Legend:
Test in all cases: growth of human tumour cells (NCI), 48 h
DLD-1 colon = test system: DLD-1 colon
KM20L2 colon = test system: KM20L2 colon
SNB-78 CNS = test system: SNB-78 CNS
DMS 273 small cell lung = test system: DMS 273 small cell lung
DMS 114 small cell lung = test system: DMS 114 small cell lung
LXFL 529 NSCLC = test system: LXFL 529 NSCLC
XF 498 CNS = test system: XF 498 CNS
HOP-18 NSCLC = test system: HOP-18 NSCLC
RXF-631 renal = test system: RXF-631 renal

Structure (SMILES)	TGI (DLD-1 colon) [µM]	TGI (KM20L2 colon) [µM]	TGI (SNB-78 CNS) [µM]	TGI (DMS 273 small cell lung) [µM]	TGI (DMS 114 small cell lung) [µM]	TGI (LXFL 529 NSCLC) [µM]	TGI (XF 498 CNS) [µM]	TGI (HOP-18 NSCLC) [µM]	TGI (RXF-631 renal) [µM]
CCOC(=O)CSc1nnc(CSc2nc(-c3ccccc3)c(-c3ccccc3)[nH]2)n1-c1ccccc1	> 100	59.2	68.5	> 100	39.8	42.4	46.3	–	–
c1cnc2c(c1)-n1cccc1C1(CCSC1)NN2 (stereo not given)	> 100	–	> 100	> 100	> 100	–	> 100	> 100	–
CSc1ccc(OCC2OC2O)cc1 (stereo not given)	> 100	> 100	> 100	> 100	86.3	> 100	78.7	> 100	–
COC(=O)C1=CC2CC1C(S(=O)(=O)c1ccccc1)C2S(=O)(=O)c1ccccc1 (stereo not given)	29.8	33.2	–	23.4	36	18.6	–	30.5	26.9
N#Cc1cc([N+](=O)[O-])ccc1NC(=O)C(F)(F)F	> 100	> 100	> 100	> 100	> 56.1	> 100	> 100	> 100	–
NC1=NN(c2ccccc2)C(=O)C1/C(=N\NC(=O)c1cc2ccccc2cc1O)C(=O)Nc1cccc(C(F)(F)F)c1 (stereo not given)	> 100	> 100	> 100	–	83	> 100	> 100	> 100	–
CCC12CCCNC1c1c(n(C)c3ccccc13)C(C(=O)OC)C2 (stereo not given)	> 275	231	–	246	152	> 275	123	–	–
Cc1cc(C)n2c(-c3ccccc3)c(C)cc2n1	> 100	> 100	> 100	> 100	> 100	–	–	> 100	> 100
CC1(c2cccc(N)c2)C2C(=O)NC(=O)C1C(=O)NC2=O (stereo not given)	> 100	> 100	> 100	73.3	96.9	> 100	64.4	–	> 100
CC1=NN2C(c3ccc(C)cc3)=CSC2=NC(C)(C)C1	> 100	> 100	> 100	–	> 100	> 100	> 100	> 100	–
Cc1ccc(S(=O)(=O)N2c3ccccc3[C@H]3CCC=C[C@H]32)cc1	> 100	10.3	> 85.7	18.9	15.1	> 93.9	73.7	> 100	> 100
COc1ccc(N2C(=O)c3c(c4[nH]c5ccc(OC)cc5c4c4ccc(C(C)(C)C)cc34)C2=O)cc1	> 100	–	> 100	> 100	> 100	> 100	> 100	> 100	–
Cc1ccc2c(c1)C1C(CO2)C(c2ccccc2)=NN1c1ccccc1 (stereo not given)	> 100	> 100	> 100	> 100	> 100	> 100	–	> 100	–
C[C@H](NC(=O)n1c2ccccc2c2ccccc21)C(=O)O	> 100	> 100	–	> 100	> 100	> 100	–	> 100	> 100
C/C(=N\NS(=O)(=O)c1ccc(C)cc1)c1cc2ccccc2n1C	> 100	> 100	–	> 100	> 100	> 100	–	–	–
COC(=O)N/N=C(\C(=O)Nc1cccc([N+](=O)[O-])c1)c1nc2ccc([N+](=O)[O-])cc2[nH]c1=O	> 100	67.3	–	–	40.1	> 100	> 100	> 100	–
CN(C)CCC(CCN(C)C)=NOC(=O)c1ccccc1	> 100	> 100	–	> 100	> 100	> 100	> 100	> 100	> 100
CC(=O)OC1CC2(C)OC(Cc3ccccc32)O1 (stereo not given)	> 100	> 100	> 100	> 100	> 100	–	> 100	> 100	–
Cc1cc2oc(-c3ccccc3)c(C)c(=O)c2c2c1OC(C)(C)S2	> 100	> 100	–	> 100	> 100	> 100	> 100	> 100	> 100
